Patent publication US8332025B2, “Method and system for detecting electrophysiological changes in pre-cancerous and cancerous tissue and epithelium” (Epi-Sci, LLC, priority 2005, dated 2012)
Read-outs that look alike come from different tables or passages of the source.

What was measured:
[1] = system: distal colon; assay: Transepithelial potential (VT) of colon during treatment; format: in vivo, CF1 mice; conditions: administered over the same period (four weeks)
[2] = system: colonocyte cell membrane; conditions: cited from earlier work
[3] = system: apical K+ channels of human colonic mucosa; assay: Short circuit current of human colonic epithelium ex-vivo (FIG. 12); conditions: 30 mM mucosal; normal colon; 0.1 mM amiloride; elevated serosal K+
Protocol: The potassium permeability of the apical membrane of human colonic mucosa (P^Ka) was determined in surgical specimens of controls and grossly normal-appearing mucosa obtained 10-30 cm proximal to colorectal adenocarcinomas. The mucosa was, mounted in Using chambers and the basolateral, membrane resistance and voltage were nullified by elevating the K^+ in the serosal bathing solution. The apical sodium (Na^+) conductance was blocked with 0.1 mM amiloride. This protocol reduces the equivalent circuit model of the epithelium to an apical membrane conductance and electromotive force in parallel with the paracellular pathway as has been verified by microelectrode studies. […] In cancer-bearing colon the reduction in Isc is to −65 μA/cm^2. The serosal bath was remained constant at 125 mM [K].

[4] = system: breast epithelium; conditions: 20 μM luminal, cited from earlier work
[5] = system: benign breast epithelial cells; assay: Cell membrane potential, potentiometric fluorescent probe (FIG. 7), benign cells; format: cell-based, human; conditions: estradiol added to the culture media; approximately −50 mV in its absence
Protocol: (§1) Measurements were made using a potentiometric fluorescent probe, and ratiometric measurements, which are calibrated using valinomycin and [K^+]-gradients. Ψs were measured in the presence (closed circles) and absence (open circles) of estradiol (the active, metabolite of estrogen). Each symbol is the mean measurement. The upper error bar is the standard error of the mean, and the lower error bar is the 95% confidence level for the observations. The addition of estrogen to cultured breast epithelial cells results in an instantaneous increase in Ψ (data not shown) as well as the transepithelial potential see. FIG. 8. Transepithelial potential (VT) of an epithelium is the sum of the apical (luminal) cell membrane potential (VA) and the basolateral (abluminal) cell membrane potential (VBL). Therefore VT=VA+VBL (changes in VA and/or VBL will therefore alter VT or transepithelial potential). […] Malignant and transformed cells have a Ψ of between −31 and −35 mV in the absence of estradiol and approximately 50 mV when estradiol is present in the culture medium.

[6] = system: Malignant and transformed cells; assay: Cell membrane potential, potentiometric fluorescent probe (FIG. 7), malignant and transformed cells; format: cell-based, human; conditions: estradiol present in the culture medium; −31 to −35 mV in its absence
Protocol: as §1

[7] = system: malignant human breast epithelial cells; assay: Transepithelial potential of monolayers in Ussing chambers (FIG. 8), malignant epithelia; format: cell-based
Protocol: (§2) It should be noted, that the instantaneous response, illustrated in FIG. 8, is greater in malignant epithelia, whereas the chronic or sustained exposure to estradiol results in a lower increase in TEP (transepithelial, electropotential) in malignant cells. Concurrent measurement of surface electropotential and impedance allow the more accurate diagnosis of cancer. […] The cells were grown, as monolayers on Millipore filters and grew to confluence in 7 to 10 days. The epithelia were then mounted in modified Using chambers and the TEP was measured using a voltage clamp. Increasing doses of estradiol between 0 and 0.8 μM were added (x-axis). The transepithelial potential was measured after each addition and the TEP was measured (y-axis). The different dose response is apparent for benign and malignant epithelia. Malignant epithelia have a lower TEP but undergo an instantaneous increase in TEP of approximately 9 mV (becomes more electronegative and reaches a level of <−6 mV) after exposure to only 0.1 μM estradiol and then depolarize to approximately −2 mV with increasing doses of estradiol up to about 0.5 μM. […] 0.3 μM and then remain persistently elevated (higher electro negativity), unlike the malignant epithelia, with increasing doses of estradiol.

[8] = system: benign human breast epithelial cells; assay: Transepithelial potential of monolayers in Ussing chambers (FIG. 8), benign epithelia; format: cell-based; conditions: increasing doses 0 to 0.8 μM
Protocol: as §2

O=c1[nH]cc(F)c(=O)[nH]1 [5-fluorouracil]
effect on transepithelial potential (VT) [1]: did not cause a reduction in VT

CNNC [DMH, 1,2 dimethylhydrazine]
VA (apical membrane voltage) ([2]; after 6 weeks of treatment, from −74.9 mV): −61.4 mV
VA (apical membrane voltage) ([2]; by 20 weeks of treatment): −34 mV

CC[N+](CC)(CC)CC [TEA]
effect on short circuit current (Isc) [3]: abrupt increase in Isc

N=C(N)NC(=O)c1nc(Cl)c(N)nc1N [amiloride]
increase in transepithelial resistance [4]: 17%
depolarization of the transepithelial potential (change) ([4]; from −5.9±0.5 mV, mean±SEM): +3.1±0.5 mV

C[C@]12CC[C@@H]3c4ccc(O)cc4CC[C@H]3[C@@H]1CC[C@@H]2O [estradiol, 17-β-estradiol]
cell membrane potential (Ψ) [5]: ~−70 mV
cell membrane potential (Ψ) [6]: approximately 50 mV
TEP level reached ([7]; 0.1 μM): < −6 mV
instantaneous increase in TEP ([7]; 0.1 μM): approximately 9 mV
TEP after depolarization with increasing doses ([7]; up to about 0.5 μM): approximately −2 mV
dose at which the TEP response peaks [8]: ~0.3 µM
